Measured values reported in ChEMBL document CHEMBL1201861, “Genomics of Drug Sensitity in Cancer screening data, Wellcome Trust Sanger Institute”.
pIC50: −log10 of the molar value.

How the values were obtained:
Assay in all cases: cells
Conditions in all cases: Homo sapiens
[1] = tested on: COLO-680N; type: functional, cell-based;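 note: cell viability assay used to measure inhibition of COLO-680N cell growth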
Description: SANGER: Inhibition of human COLO-680N cell growth in a cell viability assay.

[2] = tested on: MDA-MB-415; type: functional, cell-based
[3] = tested on: Capan-2; type: functional, cell-based;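 note: Capan-2 cell growth inhibition, read out with a viability assay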
Description: SANGER: Inhibition of human Capan-2 cell growth in a cell viability assay.

[4] = tested on: NB17; type: functional, cell-based;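 note: growth inhibition of NB17 cells, read out with a cell viability assay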
Description: SANGER: Inhibition of human NB17 cell growth in a cell viability assay.

[5] = tested on: HMV-2 cell line; type: functional, cell-based;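 note: growth inhibition of HMV-II cells, read out with a cell viability assay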
Description: SANGER: Inhibition of human HMV-II cell growth in a cell viability assay.

[6] = tested on: HLE; type: functional, cell-based;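 note: growth inhibition of human HLE cells, read out by a cell viability assay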
Description: SANGER: Inhibition of human HLE cell growth in a cell viability assay.

[7] = tested on: NCI-H520; type: functional, cell-based;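 note: growth inhibition of NCI-H520 cells, measured by a cell viability assay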
Description: SANGER: Inhibition of human NCI-H520 cell growth in a cell viability assay.

[8] = tested on: HCC70; type: functional, cell-based;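 note: cell viability assay measuring how strongly the compound suppresses proliferation of HCC70 cells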
Description: SANGER: Inhibition of human HCC70 cell growth in a cell viability assay.

[9] = tested on: LK-2; type: functional, cell-based;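 note: growth inhibition of LK-2 cells, read out with a viability assay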
Description: SANGER: Inhibition of human LK-2 cell growth in a cell viability assay.

[10] = tested on: ESS-1; type: functional, cell-based;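 note: growth inhibition of human ESS-1 cells, read out by a cell viability assay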
Description: SANGER: Inhibition of human ESS-1 cell growth in a cell viability assay.

[11] = tested on: HCC1806; type: functional, cell-based;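 note: growth inhibition of the cancer cell line, determined with a cell viability assay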
Description: SANGER: Inhibition of human HCC1806 cell growth in a cell viability assay.

[12] = tested on: ASPC1; type: functional, cell-based;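 note: growth inhibition of AsPC-1 cells, read out with a cell viability assay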
Description: SANGER: Inhibition of human AsPC-1 cell growth in a cell viability assay.

[13] = tested on: SW948; type: functional, cell-based;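 note: growth inhibition of SW948 cells, read out with a cell viability assay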
Description: SANGER: Inhibition of human SW948 cell growth in a cell viability assay.

[14] = tested on: 8305C; type: functional, cell-based
Description: SANGER: Inhibition of human 8305C cell growth in a cell viability assay.

[15] = tested on: SW1783; type: functional, cell-based;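 note: cell growth inhibition measured with a viability assay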
Description: SANGER: Inhibition of human SW1783 cell growth in a cell viability assay.

[16] = tested on: FaDu; type: functional, cell-based;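 note: cell viability readout of growth inhibition in FaDu cells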
Description: SANGER: Inhibition of human FADU cell growth in a cell viability assay.

[17] = tested on: CAMA-1; type: functional, cell-based;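 note: growth inhibition of CAMA-1 cells, read out with a cell viability assay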
Description: SANGER: Inhibition of human CAMA-1 cell growth in a cell viability assay.

[18] = tested on: 786-0; type: functional, cell-based
Description: SANGER: Inhibition of human 786-0 cell growth in a cell viability assay.

[19] = tested on: TGW; type: functional, cell-based;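 note: growth inhibition of human TGW cells, read out with a cell viability assay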
Description: SANGER: Inhibition of human TGW cell growth in a cell viability assay.

[20] = tested on: FTC-133; type: functional, cell-based
[21] = tested on: VM-CUB-1; type: functional, cell-based;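 note: cell viability assay measuring growth inhibition of the human VM-CUB-1 cell line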
Description: SANGER: Inhibition of human VM-CUB-1 cell growth in a cell viability assay.

[22] = tested on: DBTRG-05MG; type: functional, cell-based;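 note: cell viability assay measuring growth inhibition of human DBTRG-05MG cells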
Description: SANGER: Inhibition of human DBTRG-05MG cell growth in a cell viability assay.

[23] = tested on: MFE-280; type: functional, cell-based;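 note: growth inhibition of MFE-280 cells, determined with a cell viability readout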
Description: SANGER: Inhibition of human MFE-280 cell growth in a cell viability assay.

[24] = tested on: RPMI-7951; type: functional, cell-based
Description: SANGER: Inhibition of human RPMI-7951 cell growth in a cell viability assay.

[25] = tested on: HGC-27; type: functional, cell-based;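 note: growth inhibition of human HGC-27 cells, read out in a cell viability assay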
Description: SANGER: Inhibition of human HGC-27 cell growth in a cell viability assay.

[26] = tested on: EGI-1; type: functional, cell-based;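 note: cell viability readout used to gauge growth inhibition of EGI-1 cells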
Description: SANGER: Inhibition of human EGI-1 cell growth in a cell viability assay.

[27] = tested on: D-392MG; type: functional, cell-based
[28] = tested on: SW1573; type: functional, cell-based;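 note: growth inhibition of SW1573 cells, read out with a cell viability assay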
Description: SANGER: Inhibition of human SW1573 cell growth in a cell viability assay.

[29] = tested on: LU-99A; type: functional, cell-based;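 note: growth inhibition of LU-99A cells, read out with a cell viability assay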
Description: SANGER: Inhibition of human LU-99A cell growth in a cell viability assay.

[30] = tested on: HuCCT-1; type: functional, cell-based, HuCCT1;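 note: growth inhibition of HuCCT-1 cells, read out by a cell viability assay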
Description: SANGER: Inhibition of human HuCCT1 cell growth in a cell viability assay.

[31] = tested on: P12-Ichikawa; type: functional, cell-based
[32] = tested on: OAW-28; type: functional, cell-based;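 note: growth inhibition of OAW-28 cells, read out with a cell viability assay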
Description: SANGER: Inhibition of human OAW-28 cell growth in a cell viability assay.

[33] = tested on: COLO-678; type: functional, cell-based
Description: SANGER: Inhibition of human COLO-678 cell growth in a cell viability assay.

[34] = tested on: CAL-72; type: functional, cell-based;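 note: cell viability assay measuring inhibition of proliferation in the CAL-72 cell line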
Description: SANGER: Inhibition of human CAL-72 cell growth in a cell viability assay.

[35] = tested on: NCI-H1693; type: functional, cell-based;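 note: growth inhibition of the human cell line, read out with a cell viability assay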
Description: SANGER: Inhibition of human NCI-H1693 cell growth in a cell viability assay.

[36] = tested on: NCI-H358; type: functional, cell-based;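 note: growth inhibition of NCI-H358 human cells, read out with a cell viability assay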
Description: SANGER: Inhibition of human NCI-H358 cell growth in a cell viability assay.

[37] = tested on: HT1197; type: functional, cell-based, HT-1197
Description: SANGER: Inhibition of human HT-1197 cell growth in a cell viability assay.

[38] = tested on: SAS; type: functional, cell-based;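 note: growth inhibition of SAS cells, read out with a cell viability assay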
Description: SANGER: Inhibition of human SAS cell growth in a cell viability assay.

[39] = tested on: SCC-25; type: functional, cell-based;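 note: growth inhibition of SCC-25 cells, measured with a cell viability assay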
Description: SANGER: Inhibition of human SCC-25 cell growth in a cell viability assay.

[40] = tested on: NCI-H2405; type: functional, cell-based;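 note: growth inhibition of the human cell line, read out with a cell viability assay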
Description: SANGER: Inhibition of human NCI-H2405 cell growth in a cell viability assay.

[41] = tested on: NCI-H1793; type: functional, cell-based;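 note: cell growth inhibition, read out by a cell viability assay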
Description: SANGER: Inhibition of human NCI-H1793 cell growth in a cell viability assay.

[42] = tested on: RCM-1; type: functional, cell-based;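 note: growth inhibition of the RCM-1 line, determined with a cell viability readout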
Description: SANGER: Inhibition of human RCM-1 cell growth in a cell viability assay.

[43] = tested on: NCI-H2122; type: functional, cell-based;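 note: growth inhibition of the cells, read out with a cell viability assay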
Description: SANGER: Inhibition of human NCI-H2122 cell growth in a cell viability assay.

[44] = tested on: CAL-120; type: functional, cell-based;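 note: cell growth inhibition, read out as cell viability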
Description: SANGER: Inhibition of human CAL-120 cell growth in a cell viability assay.

[45] = tested on: HCC1954; type: functional, cell-based;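 note: growth inhibition of human HCC1954 cells, read out with a cell viability assay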
Description: SANGER: Inhibition of human HCC1954 cell growth in a cell viability assay.

[46] = tested on: MDA-MB-453; type: functional, cell-based
Description: SANGER: Inhibition of human MDA-MB-453 cell growth in a cell viability assay.

[47] = tested on: KYSE-520 cell line; type: functional, cell-based;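 note: growth inhibition of human KYSE-520 cells, read out with a viability assay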
Description: SANGER: Inhibition of human KYSE-520 cell growth in a cell viability assay.

[48] = tested on: RVH-421; type: functional, cell-based
Description: SANGER: Inhibition of human RVH-421 cell growth in a cell viability assay.

[49] = tested on: NCI-H596; type: functional, cell-based;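 note: growth inhibition of NCI-H596 cells, read out with a cell viability assay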
Description: SANGER: Inhibition of human NCI-H596 cell growth in a cell viability assay.

[50] = tested on: T84; type: functional, cell-based;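 note: growth inhibition measured with a cell viability readout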
Description: SANGER: Inhibition of human T84 cell growth in a cell viability assay.

[51] = tested on: HSC-4; type: functional, cell-based;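 note: growth inhibition of human HSC-4 cells, read out with a cell viability assay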
Description: SANGER: Inhibition of human HSC-4 cell growth in a cell viability assay.

**Q.** How did the pIC50 [1] turn out when O=c1cc(N2CCOCC2)oc2c(-c3cccc4c3sc3ccccc34)cccc12 was run?
**A.** < 5.70

**Q.** What about the pIC50 [2] of the same compound?
**A.** < 5.70

**Q.** And the pIC50 [3]?
**A.** < 5.70

**Q.** What about the pIC50 [4] of the same compound?
**A.** < 5.70

**Q.** What about the pIC50 [5] of the same compound?
**A.** < 5.70

**Q.** And the pIC50 [6]?
**A.** < 5.70

**Q.** And the pIC50 [7]?
**A.** < 5.70

**Q.** What about the pIC50 [8] of the same compound?
**A.** < 5.70

**Q.** And the pIC50 [9]?
**A.** < 5.70

**Q.** What about the pIC50 [10] of the same compound?
**A.** < 5.70

**Q.** And the pIC50 [11]?
**A.** < 5.70

**Q.** And the pIC50 [12]?
**A.** < 5.70

**Q.** And the pIC50 [13]?
**A.** < 5.70

**Q.** What about the pIC50 [14] of the same compound?
**A.** < 5.70

**Q.** And the pIC50 [15]?
**A.** < 5.70

**Q.** And the pIC50 [16]?
**A.** < 5.70

**Q.** What about the pIC50 [17] of the same compound?
**A.** < 5.70

**Q.** And the pIC50 [18]?
**A.** < 5.70

**Q.** What about the pIC50 [19] of the same compound?
**A.** < 5.70

**Q.** What about the pIC50 [20] of the same compound?
**A.** < 5.70

**Q.** And the pIC50 [21]?
**A.** < 5.70

**Q.** And the pIC50 [22]?
**A.** < 5.70

**Q.** What about the pIC50 [23] of the same compound?
**A.** < 5.70

**Q.** What about the pIC50 [24] of the same compound?
**A.** < 5.70

**Q.** What about the pIC50 [25] of the same compound?
**A.** < 5.70

**Q.** And the pIC50 [26]?
**A.** < 5.70

**Q.** What about the pIC50 [27] of the same compound?
**A.** < 5.70

**Q.** And the pIC50 [28]?
**A.** < 5.70

**Q.** And the pIC50 [29]?
**A.** < 5.70

**Q.** What about the pIC50 [30] of the same compound?
**A.** < 5.70

**Q.** What about the pIC50 [31] of the same compound?
**A.** < 5.70

**Q.** What about the pIC50 [32] of the same compound?
**A.** < 5.70

**Q.** What about the pIC50 [33] of the same compound?
**A.** < 5.70

**Q.** What about the pIC50 [34] of the same compound?
**A.** < 5.70

**Q.** What about the pIC50 [35] of the same compound?
**A.** < 5.70

**Q.** And the pIC50 [36]?
**A.** < 5.70

**Q.** And the pIC50 [37]?
**A.** < 5.70

**Q.** What about the pIC50 [38] of the same compound?
**A.** < 5.70

**Q.** What about the pIC50 [39] of the same compound?
**A.** < 5.70

**Q.** What about the pIC50 [40] of the same compound?
**A.** < 5.70

**Q.** What about the pIC50 [41] of the same compound?
**A.** 5.84

**Q.** And the pIC50 [42]?
**A.** < 5.70

**Q.** What about the pIC50 [43] of the same compound?
**A.** < 5.70

**Q.** And the pIC50 [44]?
**A.** < 5.70

**Q.** What about the pIC50 [45] of the same compound?
**A.** < 5.70

**Q.** What about the pIC50 [46] of the same compound?
**A.** < 5.70

**Q.** What about the pIC50 [47] of the same compound?
**A.** < 5.70

**Q.** What about the pIC50 [48] of the same compound?
**A.** < 5.70

**Q.** And the pIC50 [49]?
**A.** < 5.70

**Q.** What about the pIC50 [50] of the same compound?
**A.** < 5.70

**Q.** What does the source list for NC(=O)c1ncn([C@@H]2O[C@H](COP(=O)(O)O)[C@@H](O)[C@H]2O)c1N?
**A.** pIC50 [1]: < 2.70; pIC50 [2]: 3.18; pIC50 [3]: < 2.70; pIC50 [4]: < 2.70; pIC50 [5]: < 2.70; pIC50 [6]: < 2.70; pIC50 [7]: 3.13; pIC50 [8]: 2.90; pIC50 [9]: < 2.70; pIC50 [10]: < 2.70; pIC50 [11]: 3.44; pIC50 [12]: 2.88; pIC50 [13]: < 2.70; pIC50 [14]: < 2.70; pIC50 [15]: < 2.70; pIC50 [16]: 2.97; pIC50 [17]: 3.45; pIC50 [18]: 2.97; pIC50 [51]: 3.06; pIC50 [21]: 3.17; pIC50 [22]: 2.89; pIC50 [23]: < 2.70; pIC50 [24]: 2.80; pIC50 [25]: 2.88; pIC50 [26]: < 2.70; pIC50 [27]: < 2.70; pIC50 [28]: < 2.70; pIC50 [29]: < 2.70; pIC50 [30]: 2.97; pIC50 [31]: 2.83; pIC50 [33]: < 2.70; pIC50 [34]: 3.49; pIC50 [35]: < 2.70; pIC50 [36]: < 2.70; pIC50 [37]: < 2.70; pIC50 [38]: 3.13; pIC50 [39]: 2.91; pIC50 [40]: < 2.70; pIC50 [41]: < 2.70; pIC50 [42]: < 2.70; pIC50 [43]: 3.30; pIC50 [44]: 3.08; pIC50 [45]: < 2.70; pIC50 [46]: < 2.70; pIC50 [47]: 3.42; pIC50 [48]: < 2.70; pIC50 [49]: < 2.70; pIC50 [50]: < 2.70

**Q.** CC[C@@]1(O)C(=O)OCc2c1cc1n(c2=O)Cc2cc3ccccc3nc2-1 [CAMPTOTHECIN] was tested. Which pIC50 [1] did it give?
**A.** 7.14

**Q.** And the pIC50 [4]?
**A.** 8.66

**Q.** And the pIC50 [5]?
**A.** 8.05

**Q.** And the pIC50 [6]?
**A.** 8.24

**Q.** What about the pIC50 [8] of the same compound?
**A.** 7.34

**Q.** What about the pIC50 [9] of the same compound?
**A.** 7.45

**Q.** And the pIC50 [10]?
**A.** 8.15

**Q.** And the pIC50 [11]?
**A.** 8.50

**Q.** And the pIC50 [14]?
**A.** 7.03

**Q.** And the pIC50 [15]?
**A.** 7.61

**Q.** And the pIC50 [16]?
**A.** 9.27

**Q.** And the pIC50 [17]?
**A.** 7.06

**Q.** What about the pIC50 [18] of the same compound?
**A.** 8.30

**Q.** What about the pIC50 [20] of the same compound?
**A.** 8.34

**Q.** And the pIC50 [51]?
**A.** 9.74

**Q.** What about the pIC50 [21] of the same compound?
**A.** 8.66

**Q.** And the pIC50 [22]?
**A.** 7.39

**Q.** What about the pIC50 [23] of the same compound?
**A.** 7.67

**Q.** What about the pIC50 [24] of the same compound?
**A.** 8.32

**Q.** And the pIC50 [25]?
**A.** 8.39

**Q.** And the pIC50 [26]?
**A.** 7.60

**Q.** What about the pIC50 [27] of the same compound?
**A.** 7.75

**Q.** And the pIC50 [28]?
**A.** 8.63

**Q.** And the pIC50 [29]?
**A.** 8.41

**Q.** And the pIC50 [30]?
**A.** 7.14

**Q.** And the pIC50 [31]?
**A.** 9.99

**Q.** And the pIC50 [32]?
**A.** 8.14

**Q.** What about the pIC50 [33] of the same compound?
**A.** < 7.00

**Q.** What about the pIC50 [35] of the same compound?
**A.** 7.57

**Q.** What about the pIC50 [37] of the same compound?
**A.** < 7.00

**Q.** And the pIC50 [38]?
**A.** 8.91

**Q.** What about the pIC50 [39] of the same compound?
**A.** 7.25

**Q.** And the pIC50 [40]?
**A.** 7.23

**Q.** And the pIC50 [41]?
**A.** 7.57

**Q.** And the pIC50 [42]?
**A.** 7.54

**Q.** What about the pIC50 [43] of the same compound?
**A.** 7.89

**Q.** What about the pIC50 [44] of the same compound?
**A.** < 7.00

**Q.** And the pIC50 [46]?
**A.** 8.16

**Q.** What about the pIC50 [47] of the same compound?
**A.** 7.08

**Q.** And the pIC50 [48]?
**A.** 7.15

**Q.** And the pIC50 [49]?
**A.** < 7.00

**Q.** And the pIC50 [50]?
**A.** < 7.00
